From patent US4430263A, “Hapten-inhibitor immunoassay” (Abbott Laboratories, priority 1980, dated 1984) come the findings set out here.

For this assay, the system named is sheep T4 antibody (gamma globulin / IgG fraction from sheep antiserum). The assay can be described thus: Binding constant of T4 antibody binding sites (footnote to Table I, antibody modulation of STI-T4). To be noted: approximately 7.4 × 10^-8 M antibody binding sites; gamma globulin chromatographically isolated from sheep T4 antibody. Here is the method: A working solution of 2.0 mg/ml gamma globulin (chromatographically isolated from sheep T4 antibody) is prepared in 0.1 M HEPES (N-2-hydroxyethylpiperazine-N'-2-ethanesulfonic acid) buffer, pH 8.0, containing 0.1% gelatin. A stock solution of the STI-T4 (soybean trypsin inhibitor-thyroxine) conjugate (8×10^-7 M) is also prepared in HEPES-gelatin buffer, pH 8.0. A trypsin stock solution is made at 1×10^-7 M in dilute HCl, pH 3.0, and stored at 4° C. The trypsin working reagent is diluted to a concentration of 8.2×10^-8 M with HCl gelatin, pH 3.0. Equal volumes (50 μl) of the thyroxine STI conjugate and antibody are mixed and incubated at room temperature for 5 minutes. Trypsin is then added to the mixture, incubated for 30 seconds, and a 25 μl portion of the assay mixture diluted into a cuvette with 250 μl of substrate (0.5 mM benzoylphenylalanylvalyl arginine p-nitroaniline in 0.05 M Tris pH 8.1 with 0.01 M CaCl2). The change in absorbance with time (t=5.5 minutes less t=0.5 minutes) is recorded using a Bichromatic Analyzer equipped with a 380/450 mμ filter. The following table gives the results for a suitable conjugate prepared in Example I.
A working solution of 1 mg/ml anti-T4 IgG (from sheep antiserum) is prepared in barbital buffer with gelatin. The approximate concentration of binding sites from […] analysis is 1.2×10^-7 M.

As for `N[C@@H](Cc1cc(I)c(Oc2cc(I)c(O)c(I)c2)c(I)c1)C(=O)O` [thyroxine], the “K (antibody binding sites)” value is ~1.3 × 10^9.
